# Experimental data taken from patent US20240116999A1, “CONFORMATIONALLY CONSTRAINED GLUCAGON ANALOGUES AND THEIR USE IN GLUCAGON-SINGLE CHAIN INSULIN FUSION PROTEINS” (THE TRUSTEES OF INDIANA UNIVERSITY, priority 2021, published 2024).
# Bridge positions count the residues as written; N and C are the ends. Square brackets hold non-standard residues; d marks the D form. Ends that are not written are not given here. Peptide text beside a SMILES is read from it. Orn = NCCC[C@H](N)C(=O)O
# How the values were obtained:
# [1] = Thioflavin T (ThT) fibrillation assay; format: physicochemical; conditions: for fibril formation: FIG. 5, relative to native glucagon; for formation of amyloid-like fibrils: FIG. 15, month-long assay, 100 μM, pH 7.4, 37° C.
# Experimental: Fibrillation Assays. We employed an automated plate-based fluorescent device to monitor the time course of peptide fibrillation using a Thioflavin T (ThT) assay. This assay is based on the THT fluorescence emission at 480 nm upon binding to mature fibrils when excited at 440 nm. The assay was performed by preparing stock solutions of the fusion protein and the individual peptides in either NaCl 0.9% (pH 2.5) or PBS (pH 7.4). Our experience has identified 100-μM final concentration as optimal fibrillation conditions for glucagon analogues. Stock solutions were diluted with NaCl 0.9% or 1X PBS buffer, pH adjusted (with 1N HCl or 1N NaOH) mixed with Thioflavin-T (THT) at a final concentration of 16 μM, centrifuged, and 250 μl of the sample were placed on a 96-well plate with 4-10 technical replicates. Measurements were done every 15 minutes and the sample agitated at 1096 cpm at 37° C. on a Synergy H1 microplate reader (BioTek, Winooski, VT). The lag time, defined as the time-point at which fibrillation starts its exponential phase, was considered as the point at which fluorescence was 3 times the background signal.
# normal rats [2] = experiment: Stability assay: samples incubated at 37° C., then activity tested; format: in vivo, rat; conditions: FIG. 11; 150 μg/ml in 50 mM Tris buffer pH 8.0, 37° C., mild agitation and rotation; tested t=0, day 3, day 7
# Experimental: Glucagon Activity Assays. The glycemic activities of glucagon analogues were tested (Ismail-Beigi ,Case Western Reserve University) in normal male rats (250-350 g) that were fasted for 4 h before the injection and not fed during the course of the experiment (4-5 rats per dose of glucagon in parallel). Glucagon or analogues were prepared (150 μg/ml in sterile 50 mM Tris-HCl buffer (pH 8.0)) and administered by subcutaneous injections (40.1 nmol/kg (˜50 ug/333 g rat)) in an injection volume of 200 μl/333 g rat. Rats were grouped according to their 2nd measured starting blood-glucose concentrations to ensure similar starting values at time=0. For in vivo dose-response studies a series of doses (40.1, 8.0, 1.6, 0.32, 0.064, and 0.013 nmol/kg) was tested in groups of 4-5 rats at each dose. Diluent volume was 200 μl/333 g rat. Experiments were repeated at least twice, and the results were averaged. The rise in blood glucose values were corrected by any changes observed in diluent-injected rats.
# To test for stability of glucagon and its analogues, samples (150 μg/ml in 50 mM Tris-HCl buffer (pH 8.0)) were incubated at 37° C. with mild agitation and rotation. Samples were tested as described above after varying periods of incubation.
# glucagon receptor = glucagon receptor (Homo sapiens, UniProt P47871); experiment: Cell-based cyclic AMP (cAMP) activity assay; conditions: for EC50: FIG. 8B, HEK-293 cells overexpressing glucagon receptor, read-out: EC50 (cAMP production)
# Experimental: Cell-based Activity Assays. We generated a cAMP assay on HepG2 cells transiently transfected with the glucagon receptor (GCGR). The GCGR gene with C-terminal Flag tag was synthesized and ligated to a pcDNA 3.1 vector by Genscript. A plate of HepG2 cells was grown to 70% confluence and then transfected with 15 μg plasmid. […] Then, cAMP was measured following the instructions of the LANCETM Ultra cAMP Kit (PerkingElmer) using 3 technical replicates per point. This is a TR-FRET assay based on the competition between a europium-labeled cAMP and sample cAMP for binding to cAMP-specific labeled antibodies. In the LANCE cAMP assay, a higher sample cAMP (higher glucagon activity) translates to lower signal.
# normal rats [3] = experiment: In vivo glucagon activity assay in normal rats; parameters: species or system rat; conditions: for in vivo glucagon activity (rise in blood glucose): subcutaneous injection
# Experimental: Glucagon Activity Assays. […] Glucagon or analogues were prepared (150 μg/ml in sterile 50 mM Tris-HCl buffer (pH 8.0)) and administered by subcutaneous injections (40.1 nmol/kg (˜50 ug/333 g rat)) in an injection volume of 200 μl/333 g rat. Rats were grouped according to their 2nd measured starting blood-glucose concentrations to ensure similar starting values at time=0. For in vivo dose-response studies a series of doses (40.1, 8.0, 1.6, 0.32, 0.064, and 0.013 nmol/kg) was tested in groups of 4-5 rats at each dose. Diluent volume was 200 μl/333 g rat. Experiments were repeated at least twice, and the results were averaged. The rise in blood glucose values were corrected by any changes observed in diluent-injected rats.
# STZ (diabetic) rats = experiment: In vivo assay in STZ (diabetic) rats, subcutaneous injection; parameters: species or system rat
# Description: FIG. 17 presents an in vivo assay done in STZ rats.
# FIG. 18 presents another in vivo assay done in STZ rats. The four fusion proteins used in FIG. 17 were subcutaneously injected at doses of 23.8 nmol/kg per rat. […] In this study both fusion proteins carrying an active SCI analogue had similar activities.
# [4] = pH 2.5, 37° C., constant agitation
# Chain of glucagon receptor (P47871 26-477, species assumed): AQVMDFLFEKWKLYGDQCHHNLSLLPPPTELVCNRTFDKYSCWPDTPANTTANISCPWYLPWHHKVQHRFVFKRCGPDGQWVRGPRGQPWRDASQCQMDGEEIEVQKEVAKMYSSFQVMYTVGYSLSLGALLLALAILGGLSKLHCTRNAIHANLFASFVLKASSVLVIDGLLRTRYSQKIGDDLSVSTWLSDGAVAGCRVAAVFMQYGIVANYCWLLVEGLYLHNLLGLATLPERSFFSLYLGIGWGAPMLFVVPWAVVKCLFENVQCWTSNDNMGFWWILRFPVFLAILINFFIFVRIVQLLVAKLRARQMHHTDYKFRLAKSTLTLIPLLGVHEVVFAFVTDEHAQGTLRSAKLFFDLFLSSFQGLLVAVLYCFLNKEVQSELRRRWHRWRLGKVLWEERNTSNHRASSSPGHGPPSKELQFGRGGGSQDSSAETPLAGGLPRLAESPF
compound,measurement,setting,value
HSQGTFTSDYSKYLDSRRAQDFVQWLMNTO [SEQ ID NO: 5],fibril formation,[1]; [4],delay fibril formation
same,fibril formation,"[1]; pH 7.4, 37° C., constant agitation",delay fibril formation
"CC(C)C[C@H](NC(=O)[C@H](Cc1c[nH]c2ccccc12)NC(=O)[C@H](CCCCN)NC(=O)[C@@H](NC(=O)[C@H](Cc1ccccc1)NC(=O)[C@H](CCC(=O)O)NC(=O)[C@H](CCC(=O)O)NC(=O)[C@H](C)NC(=O)[C@H](CCCNC(=N)N)NC(=O)[C@H](C)NC(=O)C(C)(C)NC(=O)[C@H](CC(=O)O)NC(=O)[C@H](CC(C)C)NC(=O)[C@H](Cc1ccc(O)cc1)NC(=O)[C@H](CCCCN)NC(=O)[C@H](CO)NC(=O)[C@H](Cc1ccc(O)cc1)NC(=O)[C@H](CC(=O)O)NC(=O)[C@H](CO)NC(=O)[C@@H](NC(=O)[C@H](Cc1ccccc1)NC(=O)[C@@H](NC(=O)CNC(=O)[C@H](CCC(N)=O)NC(=O)[C@H](CO)NC(=O)[C@@H](N)Cc1c[nH]cn1)[C@@H](C)O)[C@@H](C)O)C(C)C)C(=O)N[C@@H](CCC(=O)O)C(=O)N[C@@H](CO)C(=O)N[C@H](C(=O)O)[C@@H](C)O [dasiglucagon, reference compound]",biological activity after incubation (stability),normal rats [2],maintained full biological activity
human insulin [reference compound],formation of amyloid-like fibrils,[1],formed amyloid-like fibrils
HSQGTFTSDYSKYLDSRRAQDFVQWLMNTK [SEQ ID NO: 3],fibril formation,[1]; [4],delay fibril formation
"CSCC[C@H](NC(=O)[C@H](CC(C)C)NC(=O)[C@H](Cc1c[nH]c2ccccc12)NC(=O)[C@H](CCC(N)=O)NC(=O)[C@@H](NC(=O)[C@H](Cc1ccccc1)NC(=O)[C@H](CC(=O)O)NC(=O)[C@H](CCC(N)=O)NC(=O)[C@H](C)NC(=O)[C@H](CCCN)NC(=O)[C@@H]1CCC(=O)NCCCC[C@H](NC(=O)[C@H](CCCN)NC(=O)[C@H](CO)NC(=O)[C@H](Cc2ccc(O)cc2)NC(=O)[C@H](CC(=O)O)NC(=O)[C@H](CO)NC(=O)[C@@H](NC(=O)[C@H](Cc2ccccc2)NC(=O)[C@@H](NC(=O)CNC(=O)[C@H](CCC(N)=O)NC(=O)[C@H](CO)NC(=O)[C@@H](N)Cc2c[nH]cn2)[C@@H](C)O)[C@@H](C)O)C(=O)N[C@@H](CC(C)C)C(=O)N[C@@H](CC(=O)O)C(=O)N[C@@H](CO)C(=O)N1)C(C)C)C(=O)N[C@@H](CC(N)=O)C(=O)N[C@H](C(=O)N[C@@H](CCC(=O)O)C(=O)N[C@@H](CCC(=O)O)C(=O)N[C@@H](CCCCN)C(=O)O)[C@@H](C)O [SEQ ID NO: 23, HSQGTFTSDYSOKLDSEOAQDFVQWLMNTEEK] (H-HSQGTFTSDYS[Orn]KLDSE[Orn]AQDFVQWLMNTEEK-OH; lactam 13-17; N-terminus and C-terminus assumed)",time without fibril formation,"[1]; FIG. 7, phosphate-buffered saline pH 7.4, 100 μM, 37° C., constant agitation",> 11 days
same,formation of amyloid-like fibrils,[1],did not form amyloid-like fibrils within the duration of the experiment
same,EC50,glucagon receptor,126 nM
same,rise in blood glucose levels,"normal rats [3]; FIG. 12, 8 nmol/kg rat dose",minor raise
same,"rise in blood glucose levels, dose-response","normal rats [3]; FIG. 12, doses 0.32, 1.6, 8 and 40 nmol/kg rat",only at the maximum dose
same,in vivo glucagon activity (rise in blood glucose),"normal rats [3]; FIGS. 9, 10, 13",maximal activity
same,in vivo glucagon activity (rise in blood glucose),"normal rats [3]; FIGS. 9, 10, 13, listed as [Lys13, Glu17]-glucagon-EEK lactam",active
same,biological activity after incubation (stability),normal rats [2],maintained full biological activity
"HSQGTFTSDYSOKLDSEOAQDFVQWLMNTEEK (HSQGTFTSDYS[Orn]KLDSE[Orn]AQDFVQWLMNTEEK; lactam 13-17) [[Lys13, Glu17]-glucagon-EEK linear, includes the [Lys13-Glu17] substitutions but not the side-chain lactam bond]",potency (cAMP assay),"glucagon receptor; FIG. 8, relative to the lactam analogue",markedly diminished potency
same,in vivo glucagon activity (rise in blood glucose),"normal rats [3]; FIGS. 9, 10, 13",inactive
"HSQGTFTSDYSKKLDSERAQDFVQWLMNT (lactam 13-17) [SEQ ID NO: 10, a lactam bridge connects the side chains of variant residues K13 and E17]",in vivo glucagon activity (rise in blood glucose),"normal rats [3]; FIGS. 9, 10, 13, listed as [Lys13, Glu17]-glucagon lactam",active
HSQGTFTSDYSOYLDSOOAQDFV[D-Cys]WLCNTEEK [[D-Cys24-Cys27] L],in vivo glucagon activity (rise in blood glucose),"normal rats [3]; FIGS. 9, 10, 13","only analogue that is active, other than wild-type glucagon, was the [Lys13, Glu17]-glucagon lactam"
"FVNQHLCGSHLVEALYLVCGEOGFFYTPETEEGPOOGIVEQCCQSICSLEQLENYCN (FVNQHLCGSHLVEALYLVCGEXGFFYTPETEEGPXXGIVEQCCQSICSLEQLENYCN; ornithine residues; insulin peptide analog; (22)..(22) Xaa at position 22 is Orn.; (35)..(35) Xaa at position 35 is Orn.; (36)..(36) Xaa at position 36 is Orn.) [SEQ ID NO: 71, 57-residue single-chain insulin (SCI) analogue lacking internal tryptic sites]",formation of amyloid-like fibrils,[1],did not form amyloid-like fibrils within the duration of the experiment
same,biological activity relative to insulin Lispro (KP-insulin),"STZ (diabetic) rats; FIG. 14, STZ (diabetic) rats, 30-μg dose of SCI vs 15-μg dose of KP-insulin",slightly higher activity than a 15-μg dose of KP-insulin
HSQGTFTSDYSKYLDSRRAQDFVQWLMNTR (glucagon peptide analog) [SEQ ID NO: 2],fibril formation,[1]; [4],delay fibril formation
"CSCC[C@H](NC(=O)[C@H](CC(C)C)NC(=O)[C@H](Cc1c[nH]c2ccccc12)NC(=O)[C@H](CCC(N)=O)NC(=O)[C@@H](NC(=O)[C@H](Cc1ccccc1)NC(=O)[C@H](CC(=O)O)NC(=O)[C@H](CCC(N)=O)NC(=O)[C@H](C)NC(=O)[C@H](CCCN)NC(=O)[C@H](CCCN)NC(=O)[C@H](CO)NC(=O)[C@H](CC(=O)O)NC(=O)[C@H](CC(C)C)NC(=O)[C@H](Cc1ccc(O)cc1)NC(=O)[C@H](CCCN)NC(=O)[C@H](CO)NC(=O)[C@H](Cc1ccc(O)cc1)NC(=O)[C@H](CC(=O)O)NC(=O)[C@H](CO)NC(=O)[C@@H](NC(=O)[C@H](Cc1ccccc1)NC(=O)[C@@H](NC(=O)CNC(=O)[C@H](CCC(N)=O)NC(=O)[C@H](CO)NC(=O)[C@@H](N)Cc1c[nH]cn1)[C@@H](C)O)[C@@H](C)O)C(C)C)C(=O)N[C@@H](CC(N)=O)C(=O)N[C@H](C(=O)N[C@@H](CCC(=O)O)C(=O)N[C@@H](CCC(=O)O)C(=O)N[C@@H](CCCCN)C(=O)O)[C@@H](C)O [SEQ ID NO: 21, HSQGTFTSDYSOYLDSOOAQDFVQWLMNTEEK] (H-HSQGTFTSDYS[Orn]YLDS[Orn][Orn]AQDFVQWLMNTEEK-OH; N-terminus and C-terminus assumed)",formation of amyloid-like fibrils,[1],formed amyloid-like fibrils
same,EC50,glucagon receptor,93.5 nM
HSQGTFTSKYSOELDSOOAQDFVQWLMNTEEK (HSQGTFTSKYS[Orn]ELDS[Orn][Orn]AQDFVQWLMNTEEK; lactam 9-13) [SEQ ID NO: 24],in vivo glucagon activity (rise in blood glucose),"normal rats [3]; FIGS. 9, 10, 13",inactive
"HSQGTFTSDYSKKLDSERAQDFVQWLMNT (lactam 13-17) [[Lys13, Glu17]-Glucagon linear, linear [Lys13, Glu17] analogue without Orn substitutions or C-terminal EEK extension]",in vivo glucagon activity (rise in blood glucose),"normal rats [3]; FIGS. 9, 10, 13","only analogue that is active, other than wild-type glucagon, was the [Lys13, Glu17]-glucagon lactam"
HSQGTFTSKYSOELDSOOAQDFVQWLMNTEEKFVNQHLCGSHLVEALYLVCGEOGFFYTPETEEGPOOGIVEQCCQSICSLEQLENYCN [SEQ ID NO: 75],activity at 23.8 nmol/kg relative to the 12-nmol/kg rat doses,"STZ (diabetic) rats; FIG. 18 vs FIG. 17, STZ rats",increased activity at the increased dose
insulin Lispro [reference compound],formation of amyloid-like fibrils,[1],formed amyloid-like fibrils
